For test [1], the system named is Rhizoctonia solani. As to the kind of experiment: Antifungal activity against Rhizoctonia solani infected compound-pre-treated rice seedlings at 300 ppm incubated for 2 days prior to infection measured after 4 days relative to diclomezine. The test is classed as functional.
Test [2] relates to Podosphaera fuliginea. As to the kind of experiment: Antifungal activity against Podosphaera fuliginea infected compound-pre-treated cucumber seedlings at 300 ppm incubated for 2 days prior to infection measured after 4 days relative to buthiobate. The test is classed as functional.

These results are taken from ChEMBL document CHEMBL3044581, “Synthesis and fungicidal activities of silicon-containing derivatives of 2-aryl-3-(1H-1,2,4-triazol-1-yl)propanenitriles” (2001).

SMILES strings stand for the structures.

In the case of `C[Si](C)(C)CC(C#N)(Cn1cncn1)c1ccc(F)cc1` (centres undefined), the Activity_index in test [1] is 2; in test [2] it was 0.

On to `C[Si](C)(CC(C#N)(Cn1cncn1)c1ccc(Cl)cc1)c1ccccc1` (centres undefined), for which the figures for the Activity_index in test [1] and in test [2] were 0 and 2, respectively.

Take `C[Si](C)(C)CC(C#N)(Cn1cncn1)c1ccc(Cl)c(Cl)c1` (centres undefined): the Activity_index in test [1] was 0; in test [2] it was 2.

Turning to `C[Si](C)(C)CC(C#N)(Cn1cncn1)c1cccc(Cl)c1` (centres undefined), the Activity_index in test [1] is 0; in test [2] it was 2.

For `Cc1ccc(C(C#N)(Cn2cncn2)C[Si](C)(C)C)cc1` (centres undefined), the figures for the Activity_index in test [1] and in test [2] were 0 and 2, respectively.

As for `C[Si](C)(C)CC(C#N)(Cn1cncn1)c1ccc(Cl)cc1` (centres undefined), the Activity_index is listed as 2 in test [1] and 0 in test [2].

`C[Si](C)(CC(C#N)(Cn1cncn1)c1ccccc1)c1ccccc1` (centres undefined): the Activity_index is given as 0 in test [1] and 2 in test [2].

As for `C[Si](C)(C)CC(C#N)(Cn1cncn1)c1ccc(Cl)cc1Cl` (centres undefined), the Activity_index in test [1] and in test [2] was 2 throughout.

With `C[Si](C)(C)CC(C#N)(Cn1cncn1)c1ccccc1` (centres undefined), the Activity_index in test [1] and in test [2] was 2 in each case.

Consider `C[Si](C)(CC(C#N)(Cn1cncn1)c1cccc(Oc2ccccc2)c1)c1ccccc1` (centres undefined), for which the Activity_index in test [1] and in test [2] was 0 each time.

With `C[Si](C)(C)CC(C#N)(Cn1cncn1)c1ccccc1Cl` (centres undefined), the Activity_index in test [1] is given as 2; in test [2] it was 0.

Take `COc1ccc(C(C#N)(Cn2cncn2)C[Si](C)(C)C)cc1` (centres undefined): the Activity_index in test [1] and in test [2] was 2 in each case.
